Read-outs that look alike come from different tables or passages of the source. No end group written: not given here.

Test [1] concerns the target T1, ACE (Oryctolagus cuniculus, UniProt P12822).
T1 sequence (P12822 34-1310): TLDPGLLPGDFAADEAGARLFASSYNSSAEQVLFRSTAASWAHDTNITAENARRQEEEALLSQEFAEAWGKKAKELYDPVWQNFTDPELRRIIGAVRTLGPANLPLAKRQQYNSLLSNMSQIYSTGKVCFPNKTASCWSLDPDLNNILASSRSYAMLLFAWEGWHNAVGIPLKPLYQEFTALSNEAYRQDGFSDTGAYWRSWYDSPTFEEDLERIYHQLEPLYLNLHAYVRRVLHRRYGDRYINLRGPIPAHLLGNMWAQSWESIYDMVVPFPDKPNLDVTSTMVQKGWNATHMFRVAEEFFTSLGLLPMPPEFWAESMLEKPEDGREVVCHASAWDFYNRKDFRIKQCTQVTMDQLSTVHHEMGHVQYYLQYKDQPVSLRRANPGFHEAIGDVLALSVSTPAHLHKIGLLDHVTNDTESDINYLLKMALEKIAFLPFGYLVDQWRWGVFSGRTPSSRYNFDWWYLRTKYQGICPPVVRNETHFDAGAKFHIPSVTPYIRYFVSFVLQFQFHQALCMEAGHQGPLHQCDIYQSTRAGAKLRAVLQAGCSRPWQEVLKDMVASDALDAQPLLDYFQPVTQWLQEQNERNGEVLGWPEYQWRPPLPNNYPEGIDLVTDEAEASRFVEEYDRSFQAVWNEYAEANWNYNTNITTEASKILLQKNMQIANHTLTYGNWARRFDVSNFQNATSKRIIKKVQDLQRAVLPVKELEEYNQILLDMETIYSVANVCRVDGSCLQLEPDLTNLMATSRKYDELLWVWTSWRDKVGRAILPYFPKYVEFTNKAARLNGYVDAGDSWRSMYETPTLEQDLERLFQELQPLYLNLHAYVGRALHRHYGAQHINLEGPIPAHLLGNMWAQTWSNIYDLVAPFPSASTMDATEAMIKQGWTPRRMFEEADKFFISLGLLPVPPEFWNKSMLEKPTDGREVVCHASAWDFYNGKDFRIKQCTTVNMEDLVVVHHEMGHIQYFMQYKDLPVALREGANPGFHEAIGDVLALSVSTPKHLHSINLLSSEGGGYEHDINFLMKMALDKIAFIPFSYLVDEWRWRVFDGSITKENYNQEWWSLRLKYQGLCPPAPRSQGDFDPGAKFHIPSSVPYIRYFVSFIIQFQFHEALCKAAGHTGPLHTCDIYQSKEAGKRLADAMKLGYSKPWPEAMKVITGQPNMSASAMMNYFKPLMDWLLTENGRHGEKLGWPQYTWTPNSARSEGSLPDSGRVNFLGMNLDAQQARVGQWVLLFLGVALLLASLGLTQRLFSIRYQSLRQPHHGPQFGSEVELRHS
Conditions: cited from earlier work.

Test [2] deals with T1, ACE. The test can be described thus: ACE-inhibitory activity (HHL substrate, HPLC determination of hippuric acid). It is filed as biochemical. Particulars: synthetic peptides, n = 3, mean ± SD; read-out: IC50 value before digestion. As to the method: (§1) The methods were previously established in our laboratory. […] Then, 60 μL of peptide samples (1 mg/mL) and 20 μL of ACE solution (0.1 U/mL) were placed in a 37 °C water bath for 10 min, and 50 μL of hippuryl-histidyl-leucine (HHL) solution (1 mM) was added to react for 60 min. Finally, the reaction was terminated by adding 1 M HCL (100 μL). The sample solution of the determination group was replaced by 60 μL boric acid buffer solution (pH = 8.3 0.3 M NaCl) in the control tube. Then, 10 μL boric acid buffer was put into the blank control tube instead of the ACE solution used in the control group. Column chromatography conditions were as follows: Waters-C18, 5 μm, 4.6 mm × 250 mm; detection wavelength: 228 nm; mobile phase: 80% A: 0.1% formic acid + 0.1% trifluoroacetic acid + 98% deionized water, 20% B: 100% acetonitrile; flow rate: 0.8 mL/min; column temperature: 30 °C; injection volume: 10 μL. The ACE-inhibition rate was calculated by Formula (1):(1) ACEinhibitoryrate%=(HAc−HAs)/([HA]c−[HA]H)×100% where HA is the concentration of hippuric acid, [HA]c is the concentration of HA in the control sample, [HA]s is the sample HA concentration, and [HA]H is the blank control HA concentration. The IC50 value was defined as the inhibitor concentration inhibiting 50% of ACE activity. First, the in vitro ACE inhibition rate was determined for samples of different concentrations. Then, the fitting curve and equation were drawn with the sample mass concentration as abscissa and ACE inhibition rate as ordinate. The value of IC50 was calculated according to the fitted curve.

For test [3], the target named is T1, ACE. In words: ACE-inhibitory activity after simulated in vitro gastrointestinal digestion (pepsin, trypsin). It is filed as biochemical. Conditions: pepsin pH 2, 2 h, then trypsin pH 7.5, 2 h, 37 °C; mean ± SD. As to the method: as §1
A slight modification of the research methodology based on the previous study was implemented. With slight modification, the peptide samples were dissolved in deionized water (1 mg/mL), adjusted the pH to 2 with 1 M HCl, pepsin (2% w/w) was added, and the reaction was run for 2 h at 37 °C in the temperature shaker. The reaction was adjusted to pH = 7.5 with 2 M NaOH, and trypsin (2% w/w) was added for 2 h. Then, it was placed in boiling water at 100 °C for 10 min and finally removed to wait for the temperature to decrease to room temperature and centrifuged to detect their ACE activity.

Turning to Tyr-Asn-Leu [YNL], the Reported activity result in test [1] is given as “ACE-inhibitory activity”.
In general, IC50 refers to the concentration that gives 50% inhibition. Consider “IPYADFK [IPYADFK, Ile-Pro-Tyr-Ala-Asp-Phe-Lys]”, for which the IC50 in test [2] is 0.63 ± 0.09 µM; in test [3], 0.8 ± 0.08 µM.
For VVLASLK, the IC50 in test [1] (peptides from Pacific saury) is 962 µM.
Consider “FYEPFM [FYEPFM, Phe-Tyr-Glu-Pro-Phe-Met]”, for which the IC50 is 10.3 ± 0.21 µM in test [2] and 11.4 ± 0.43 µM in test [3].
With “LYDHLGK [LYDHLGK, Leu-Tyr-Asp-His-Leu-Gly-Lys]”, the half-inhibitory concentration (IC50) in test [2] was 9.41 ± 0.24 µM; in test [3], 24.3 ± 0.29 µM.
For VFDGVLRPGQ, in test [1], the “Form of ACE inhibition” value was “non-competitive inhibition”.
On to “INEMLDTK [INEMLDTK, Ile-Asn-Glu-Met-Leu-Asp-Try-Lys]”, for which the IC50 is 6.53 ± 0.21 µM in test [2] and 15.65 ± 0.15 µM in test [3].
Take VGLFPSRSF: the “Form of ACE inhibition” value in test [1] (peptide from tilapia skin) is “non-competitive inhibition”.
In the case of FDGSPVGY, the “Form of ACE inhibition” value in test [1] is on record as “competitively combine with the center site of ACE”.
As for “IHFGTTGK [IHFGTTGK, Ile-His-Phe-Gly-Thr-Thr-Gly-Lys]”, the IC50 in test [2] is 5.34 ± 0.15 µM; in test [3], 33.73 ± 0.23 µM.
The matching figures for “NWPWMK [NWPWMK, Asn-Trp-Pro-Trp-Met-Lys]”: 6.23 ± 0.34 µM and 7.27 ± 0.17 µM.

(Values after publication PMC10935294, “Biodirected Screening and Preparation of Larimichthys crocea Angiotensin-I-Converting Enzyme-Inhibitory Peptides by a Combined In Vitro and In Silico Approach” (Molecules, 2024).)
